In patent publication US8372379B2, “Technetium-99m (I) tricarbonyl complexes with tridentate chelators for myocardium imaging” (Mallinckrodt LLC, priority 2006, dated 2013):

Experiment: Biodistribution of 99mTc complexes in female CD-1 mice after intravenous injection
Format: in vivo
Conditions: i.v.
Procedure: These studies have been designed as a preliminary screening tool to evaluate the biological profile of the cationic tricarbonyl complexes. The biodistribution of the complexes was evaluated in groups of 5 female CD-1 mice (randomly bred, Charles River) weighing approximately 20-25 g each and have been performed according to EEC Legislation (National Law 129/92) on ethical and animal care. Animals were intravenously injected with 100 μL (1.5-8.0 MBq) of each preparation via the tail vein and were maintained on normal diet ad libitum. […] The injected radioactive dose and the radioactivity remaining in the animal after sacrifice were measured in a dose calibrator (Aloka, Curiemeter IGC-3, Tokyo, Japan). The difference between the radioactivity in the injected and sacrificed animal was assumed to be due to total excretion from whole body animal. Blood samples were taken by cardiac puncture at sacrifice. Tissue samples of the main organs were then removed, weighted and counted in a gamma counter (Berthold). Biodistribution results were expressed as percentage of the injected dose per organ (% ID/organ) and/or per gram tissue (% ID/g). For blood, total activity was calculated assuming that this organ constitutes 6% of the total weight, respectively. The remaining activity in the carcass was also measured in a dose calibrator.

Blood uptake (5 min p.i.): 2.0 ± 0.4 % ID/g of wet organ | Heart uptake (5 min p.i.): 9.4 ± 0.4 % ID/g of wet organ | Heart/Blood ratio (5 min p.i.): 4.1 ± 0.7 | Heart/Liver ratio (5 min p.i.): 0.9 ± 0.2 | Heart/Lung ratio (5 min p.i.): 3.5 ± 0.8 | Kidney uptake (5 min p.i.): 34.2 ± 2.4 % ID/g of wet organ | Liver uptake (5 min p.i.): 9.0 ± 1.8 % ID/g of wet organ | Lung uptake (5 min p.i.): 2.4 ± 0.6 % ID/g of wet organ | Blood uptake (1 h (60 min) p.i.): 1.2 ± 0.4 % ID/g of wet organ | Heart uptake (1 h (60 min) p.i.): 8.0 ± 0.6 % ID/g of wet organ | Heart/Blood ratio (1 h (60 min) p.i.): 7.9 ± 3.6 | Heart/Liver ratio (1 h (60 min) p.i.): 1.4 ± 0.1 | Heart/Lung ratio (1 h (60 min) p.i.): 6.3 ± 0.6 | Kidney uptake (1 h (60 min) p.i.): 14.8 ± 6.1 % ID/g of wet organ | Liver uptake (1 h (60 min) p.i.): 5.6 ± 0.3 % ID/g of wet organ | Lung uptake (1 h (60 min) p.i.): 1.3 ± 0.2 % ID/g of wet organ | Blood uptake (2 h (120 min) p.i.): 1.1 ± 0.3 % ID/g of wet organ | Heart uptake (2 h (120 min) p.i.): 7.9 ± 1.0 % ID/g of wet organ | Heart/Blood ratio (2 h (120 min) p.i.): 7.4 ± 2.3 | Heart/Liver ratio (2 h (120 min) p.i.): 1.8 ± 0.7 | Heart/Lung ratio (2 h (120 min) p.i.): 9.2 ± 1.1 | Kidney uptake (2 h (120 min) p.i.): 9.7 ± 1.8 % ID/g of wet organ | Liver uptake (2 h (120 min) p.i.): 5.0 ± 2.1 % ID/g of wet organ | Lung uptake (2 h (120 min) p.i.): 0.9 ± 0.2 % ID/g of wet organ
Structure (SMILES): [C-]#[N+]CC(C)(C)OC.[C-]#[N+]CC(C)(C)OC.[C-]#[N+]CC(C)(C)OC.[C-]#[N+]CC(C)(C)OC.[C-]#[N+]CC(C)(C)OC.[C-]#[N+]CC(C)(C)OC.[Tc] [^99mTc-Sestamibi]
